These results are taken from patent US20080057531A1, “SYSTEMS, KITS, AND METHODS FOR DETECTING CARIOGENIC BACTERIA AND ASSESSING RISK OF DENTAL CARIES” (Oregon Health and Science University, priority 2006, published 2008).

Where a SMILES comes first, the peptide text is derived from it. Bridges are numbered along the chain shown (N, C = ends). [ ]: non-standard residue; d: D form. The star is where a group is joined. Ileψ(thiazoline)Cys = CC[C@H](C)[C@H](N)C1=N[C@H](C(=O)*)CS1; dOrn = NCCC[C@@H](N)C(=O)O

For assay [1], the system named is non-cariogenic streptococci, such as S. sanguis. The assay is described as follows: bacitracin selection in suspended solution format, growth measured by ATP luminescence. Type of assay: cell-based, Streptococcus sanguis. To be noted: 0.5-1.0 U/ml bacitracin in BHI medium, FIG. 3. From the text: (§1) FIG. 3 illustrates the relationship between bacitracin concentration and effect on growth of several oral streptococci species as measured by ATP luminescence.
(§2) With reference to FIG. 1, the linear portion of the curves in each graph illustrates a range of measurements that can be used to accurately correlate ATP concentration and relative light units. FIG. 2 illustrates that the relationship of ATP content and viable cell number is linear during exponential phase of growth. However, ATP content becomes diminished during transition from exponential phase to […] of growth. […] Cultures tested include Streptococcus mutans ATCC 700610, Streptococcus mutans A TCC 25175, Streptococcus sanguis and Streptococcus sobrinus. Overnight cultures were prepared using BHI medium and then inoculum was transferred to fresh BHI medium in the presence (0.5 U/ml-10 U/ml) or absence of bacitracin. […] Thus, the presence of sucrose may represent a further improvement of the current CariScreen device, by 1) extending the effectiveness of bacitracin selection and by 2) increasing the likelihood or allowing all oral microorganisms to remain in an exponential phase of growth, which based on FIG. 2, represents an accurate determinant of bacterial number as measured by ATP.

Another assay has as its system S. mutans in saliva. Description: bacitracin selection for S. mutans in pediatric saliva samples incubated in BHI media. The settings on record: four hours of bacitracin treatment, 7% at time 0, FIG. 5. It is filed as cell-based, Streptococcus mutans. An excerpt: FIG. 5 illustrates the bacitracin-based selection for the highly cariogenic S. mutans species in the presence of non-mutans streptococci.
This example describes a clinical study, examining the application of bacitracin selection (and sucrose growth accelerant) on oral micro-organisms found in dental plaque and saliva. This study examines up to 50 patients, with 3-4 plaque specimens and one saliva specimen per patient, and assesses the correlation between ATP content (measured by CariScreen meter and Veritas luminometer), wet weight of plaque specimens, total protein measurement, and viable bacterial numbers (total bacteria, total oral streptococci, Streptococcus mutans, and total lactobacilli as assessed with the use of plating on blood agar, mitis-salivarius agar, mitis-salivarius agar supplemented with bacitracin ([…] w/v), and Rogasa agar, respectively). […] With continued reference to FIG. 5, with four hours of bacitracin treatment the percentage of S. mutans in saliva went from 7% at time 0 to 75%. With reference to FIG. 6, a subject's saliva was added to BHI media±bacitracin (0.5 units/ml), and then incubated at 37° C. in a 5% carbon dioxide atmosphere. At times 0, 1, 2, and 4 hours samples were measured for ATP-driven bioluminescence and plated onto blood agar plates to measure total bacteria numbers. […]

The test system of another assay is S. sobrinus. The assay is described as follows: bacitracin selection in suspended solution format, growth measured by ATP luminescence. Type of assay: cell-based, Streptococcus sobrinus. The settings on record: 0.5-1.0 U/ml bacitracin in BHI medium, FIG. 3.
Source text: as §1, §2

The subject of the next assay is cariogenic S. mutans. Described as above. Type of assay: cell-based, Streptococcus mutans. To be noted: 0.5-1.0 U/ml bacitracin in BHI medium, FIG. 3.
Source text: as §1, §2

A further assay has as its system S. mutans. Description: sucrose effect on adherence of bacteria in a biofilm on the culture vessel. Type of assay: cell-based, Streptococcus mutans. The settings on record: sucrose especially at 0.5-1%, FIG. 4.
Source text: (§3) FIG. 4 illustrates the effect of sucrose as a potential accelerant of growth of four different oral streptococci, increase of four different streptococci strains, including measurement of adherent bacteria, in response to varying sucrose concentrations.
as §2

Assay [2] deals with oral streptococci, including cariogenic S. mutans and non-cariogenic S. salivarius and S. sanguis. The assay is described as follows: sucrose as accelerant of growth of oral streptococci, suspended bacteria. It is filed as cell-based. The settings on record: varying sucrose concentrations, FIG. 4.
Source text: as §3, §2

Regarding `CC[C@H](C)[C@H](N)C1=N[C@H](C(=O)N[C@@H](CC(C)C)C(=O)N[C@H](CCC(=O)O)C(=O)N[C@H](C(=O)N[C@H]2CCCCNC(=O)[C@H](CC(N)=O)NC(=O)[C@@H](CC(=O)O)NC(=O)[C@H](Cc3cnc[nH]3)NC(=O)[C@@H](Cc3ccccc3)NC(=O)[C@H]([C@@H](C)CC)NC(=O)[C@@H](CCCN)NC2=O)[C@@H](C)CC)CS1` [bacitracin] ({Ileψ(thiazoline)Cys}-L[dE]IK[dOrn]I[dF]H[dD]N; lactam 4-C), the effect on growth result in assay [1] is given as “greatly inhibit”; in the assay with S. sobrinus, “allows considerable break-through of growth”; in the assay on cariogenic S. mutans, “allows considerable break-through of growth”. Further, the “percentage of S. mutans in saliva” value in the assay on S. mutans in saliva turned out to be 75%.

On to `OC[C@H]1O[C@@](CO)(O[C@H]2O[C@H](CO)[C@@H](O)[C@H](O)[C@H]2O)[C@@H](O)[C@@H]1O` [sucrose], for which the “effect on adherence in a biofilm coating the plastic surface of the culture vessel” value in the assay on S. mutans is “promote the increased adherance”. For the same compound, in assay [2], the “effect on growth phase and yield” value was “extend the exponential phase of growth and promote increased yields at saturation”.
